Experimental data reported in the supplement of paper PMC13380429.

Assays:
Settings in all cases: 72 h
Calu-3 [1] = assay: relative viability EC50 (midpoint between 100% and the lowest measured viability); higher = less toxic
Vero E6 [2] = assay: as above
U2OS [3] = assay: as above
Caco-2 [4] = assay: as above
Calu-3 [5] = assay: cell viability relative to DMSO; higher = less toxic
Vero E6 [6] = assay: as above
U2OS [7] = assay: as above
Caco-2 [8] = assay: as above
Calu-3 [9] = assay: drug sensitivity score (DSS) for viability; higher = more toxic; extreme values may be limits of the assay
Vero E6 [10] = assay: as above
U2OS [11] = assay: as above
Caco-2 [12] = assay: as above
HepG2 [13] = assay: relative viability EC50 (midpoint between 100% and the lowest measured viability); higher = less toxic
HepG2 [14] = assay: cell viability relative to DMSO; higher = less toxic
HepG2 [15] = assay: drug sensitivity score (DSS) for viability; higher = more toxic; extreme values may be limits of the assay

SMILES	relative viability EC50 (Calu-3 [1])	relative viability EC50 (Vero E6 [2])	relative viability EC50 (U2OS [3])	relative viability EC50 (Caco-2 [4])	cell viability (Calu-3 [5]; 1 nM)	cell viability (Calu-3 [5]; 10 nM)	cell viability (Calu-3 [5]; 100 nM)	cell viability (Calu-3 [5]; 1000 nM)	cell viability (Calu-3 [5]; 10000 nM)	cell viability (Vero E6 [6]; 1 nM)	cell viability (Vero E6 [6]; 10 nM)	cell viability (Vero E6 [6]; 100 nM)	cell viability (Vero E6 [6]; 1000 nM)	cell viability (Vero E6 [6]; 10000 nM)	cell viability (U2OS [7]; 1 nM)	cell viability (U2OS [7]; 10 nM)	cell viability (U2OS [7]; 100 nM)	cell viability (U2OS [7]; 1000 nM)	cell viability (U2OS [7]; 10000 nM)	cell viability (Caco-2 [8]; 1 nM)	cell viability (Caco-2 [8]; 10 nM)	cell viability (Caco-2 [8]; 100 nM)	cell viability (Caco-2 [8]; 1000 nM)	cell viability (Caco-2 [8]; 10000 nM)	drug sensitivity score (Calu-3 [9])	drug sensitivity score (Vero E6 [10])	drug sensitivity score (U2OS [11])	drug sensitivity score (Caco-2 [12])	relative viability EC50 (HepG2 [13])	cell viability (HepG2 [14]; 1 nM)	cell viability (HepG2 [14]; 10 nM)	cell viability (HepG2 [14]; 100 nM)	cell viability (HepG2 [14]; 1000 nM)	cell viability (HepG2 [14]; 10000 nM)	drug sensitivity score (HepG2 [15])
NCCS [cysteamine]	> 10 µM	> 10 µM	> 10 µM	> 10 µM	87.7%	100%	98.3%	99.1%	102%	106%	101%	99.8%	94.8%	99.9%	102%	102%	95.1%	99.7%	97.4%	102%	108%	104%	100%	93.8%	0	0	0	0	–	–	–	–	–	–	–
CN(C)NC(=O)CCC(=O)O [daminozide]	–	> 10 µM	> 10 µM	> 10 µM	–	–	–	–	–	94.6%	98.2%	97.1%	98.3%	103%	97.8%	97.8%	95%	101%	101%	93.5%	96.3%	96.5%	98.3%	100%	–	0	0	0	> 10 µM	103%	96.4%	102%	102%	103%	0
COc1ccc(-n2c(SCc3nc(-c4ccc(C)cc4)no3)nnc2-c2ccncc2)cc1 [JW-74]	–	–	> 10 µM	> 10 µM	95.1%	106%	109%	107%	70.8%	108%	105%	107%	88.7%	68.2%	96.4%	98.3%	97%	96%	81.4%	111%	114%	110%	100%	86.9%	0.9	3	1	0.1	> 10 µM	99.7%	101%	96.2%	95.3%	93.3%	0
N=C(N)NC(=N)Nc1ccccc1 [1-phenylbiguanide]	–	> 10 µM	> 10 µM	> 10 µM	–	–	–	–	–	100%	93.4%	94.8%	99.4%	101%	99.3%	97.7%	103%	101%	100%	96.3%	94.8%	95.5%	92.4%	98.8%	–	0	0	0	> 10 µM	97.3%	106%	103%	109%	101%	0
Nc1ncnc2c1ncn2[C@H]1CC[C@@H](CO)O1 [dideoxyadenosine]	> 10 µM	> 10 µM	> 10 µM	> 10 µM	98.8%	95.4%	89.1%	107%	108%	101%	98%	99.3%	106%	102%	96.3%	100%	93.7%	99.3%	102%	98.6%	95.3%	94.6%	94.6%	104%	0	0	0	0	–	–	–	–	–	–	–
C=C[C@](C)(O)CC[C@@H]1[C@@]2(C)CCCC(C)(C)[C@@H]2CC[C@@]1(C)O [sclareol]	> 10 µM	> 10 µM	> 10 µM	> 10 µM	101%	98.7%	98.7%	104%	94.4%	101%	100%	102%	99.6%	104%	107%	96.6%	96.4%	98.8%	94.6%	101%	98.8%	99.7%	102%	87.6%	0	0	0	0	–	–	–	–	–	–	–
CC(C)n1c(/C=C/[C@@H](O)C[C@@H](O)CC(=O)O)c(-c2ccc(F)cc2)c2ccccc21 [fluvastatin]	–	2.05 µM	3.24 µM	> 10 µM	99%	96.7%	96.6%	105%	65.4%	100%	100%	103%	91.2%	37.5%	99.6%	109%	95.7%	101%	45.1%	92.4%	103%	101%	89.1%	80%	1.3	4.9	2.9	1.7	–	97%	104%	99.2%	90.7%	71.3%	2.5
FC(F)(F)c1ccc(/C=C/c2nc(COc3ccc(CCCCn4ccnn4)cc3)co2)cc1 [mubritinib]	–	> 10 µM	> 10 µM	> 10 µM	–	–	–	–	–	103%	103%	100%	103%	88.4%	100%	103%	93.7%	93.7%	97.2%	97.5%	109%	92.5%	81.6%	84.9%	–	0	0	3.1	0.429 µM	106%	104%	78.3%	56%	28.1%	10.8
Cc1cn([C@@H]2C[C@@H](O)[C@H](CO)O2)c(=O)[nH]c1=O [telbivudine]	> 10 µM	> 10 µM	> 10 µM	> 10 µM	118%	92.2%	105%	107%	114%	98.8%	97.6%	92.3%	85%	99.3%	97.8%	103%	96.8%	99.1%	105%	92.6%	108%	99.8%	106%	116%	0	0	0	0	–	–	–	–	–	–	–
CCCCCCCC/C=C\CCCCCCCC(=O)NCCc1ccc(O)c(O)c1 [OLDA]	> 10 µM	–	2.58 µM	–	105%	98.6%	97.9%	103%	104%	106%	101%	99%	99.2%	61.7%	101%	99.1%	98.3%	94.6%	25.9%	98.1%	90.4%	96.7%	92%	61.9%	0	2	4.9	3.2	–	98.1%	107%	100%	103%	56.3%	2
C[C@@H](O)[C@H]1C(=O)N2C(C(=O)[O-])=C(SC3Cn4cnc[n+]4C3)[C@H](C)[C@H]12 (some centres not stated) [biapenem]	–	> 10 µM	> 10 µM	> 10 µM	–	–	–	–	–	98.1%	100%	94.7%	103%	99.8%	98.6%	104%	96.3%	97.1%	100%	86.6%	104%	96.3%	93.3%	97.3%	–	0	0	0	> 10 µM	97.1%	98%	93.3%	90.7%	95.2%	0
CC(C)CCC[C@@H](C)[C@H]1CC[C@H]2[C@@H]3CC=C4C[C@@H](O)CC[C@]4(C)[C@H]3CC[C@]12C [cholesterol]	–	> 10 µM	> 10 µM	> 10 µM	–	–	–	–	–	97.1%	98.2%	92.2%	97.6%	107%	102%	93.3%	98.2%	94%	100%	89.4%	92.1%	102%	90.4%	98.9%	–	0	0	0	> 10 µM	92.6%	97.4%	91.6%	106%	104%	0
Cc1nc2ccccn2c(=O)c1CCN1CCC(C(=O)c2ccc(F)cc2)CC1 [pirenperone]	–	> 10 µM	> 10 µM	> 10 µM	–	–	–	–	–	92.6%	101%	95.6%	100%	97.2%	106%	106%	103%	99.2%	103%	103%	101%	99.5%	90.6%	106%	–	0	0	0	> 10 µM	110%	113%	108%	99.2%	90.2%	0
Clc1ccc(C(Cn2ccnc2)OCc2ccc(Sc3ccccc3)cc2)c(Cl)c1 (configuration not stated) [fenticonazole]	> 10 µM	> 10 µM	> 10 µM	–	100%	88.6%	97%	101%	85.7%	109%	108%	106%	107%	97.8%	101%	97.8%	100%	99.1%	96%	102%	94.8%	95%	91.3%	73.3%	0.1	0	0	1.7	–	116%	108%	114%	110%	68.5%	1
C[C@]12C[C@H](O)[C@H]3[C@@H](CCC4=CC(=O)CC[C@@]43C)[C@@H]1CC[C@@H]2C(=O)CO [corticosterone]	> 10 µM	> 10 µM	> 10 µM	> 10 µM	101%	101%	96.4%	97.2%	93.7%	96.1%	91.6%	101%	90.6%	87.8%	94.9%	100%	92.3%	96.1%	97.9%	92.8%	114%	114%	101%	91.5%	0	0	0	0	–	–	–	–	–	–	–
CC[C@@](C)(Nc1ccnc(-c2c[nH]c3ncccc23)n1)C(=O)NCC(F)(F)F [decernotinib]	–	> 10 µM	> 10 µM	> 10 µM	–	–	–	–	–	100%	100%	105%	99.1%	107%	96.5%	101%	94.2%	98.3%	98%	97.4%	97.3%	99%	95.4%	109%	–	0	0	0	> 10 µM	94.2%	101%	96.6%	107%	109%	0
